Where two headings read alike, the source gives them in different places.

Series [1] deals with decerebrate rigidity in rats. Kind of series: Suppression of decerebrate rigidity in rats. Format: in vivo, rat. The text has this:
The suppression of decerebrate rigidity in laboratory animals, such as rats, is a well known model for control of human spasticity and/or rigidity.
In the test method, a rat was anesthetized with halothane and fixed on a stereotaxic apparatus (SR-5, Narishige). In accordance with the brain atlas by Pellegrino et al., [L. J. Pellegrino, A. S. Pellegrino & A. J. Cushman: A Stereotaxic Atlas of the Rat Brain, Plenum Press, New York and London (1967)], an electrode 0.7 mm in diameter, which was insulated except for 1 mm at the tip, was inserted bilaterally into the midbrain reticular formation (AP: 0, L: ±1.5, H: -3.0). A clip serving as the reference electrode was fixed on the temporal muscle. Through these electrodes, a high frequency electric current (100 KHz, 10 to 20 mA) was applied from a lesion generator (Glass Co., LM4A) for 2 to 3 minutes to cauterize electrically this brain region.
The rat was then immediately set free from the stereotaxic apparatus. A polyethylene cannula was inserted into the duodenum and fixed with an acrylic resin (Aron Alfa, Sankyo Co., Ltd.). After completion of these operations, halothane anesthesia was immediately discontinued.
After 1.5 hours, when the animal awoke from the anesthesia, the rat was fixed on an apparatus devised in our laboratory for a hind leg fixation. Both hind legs were fixed at the anterior part of the ankle joints. Both hindlimb paws were then pushed in 4 mm for 6 seconds in every minute. The resulting repulsive tension was drawn on a polygraph through a strain gauge.
The test compounds were suspended in a 0.5% w/v CMC (carboxymethyl cellulose) aqueous solution and were administered orally (p.o.) or intraperitoneally (i.p.).
The results are summarized in the following Table 7, where the compounds of the present invention are identified by the number of the foregoing Example in which each was prepared, Compound X is the known compound eperisone hydrochloride, and Compound Y is the known compound afloqualone.

Series [2] relates to decerebrate rigidity (cats). Kind of series: Suppression of decerebrate rigidity (cats). Format: in vivo, cat. The text has this: Adult cats each weight 3.0 to 4.5 kg were used. Under ether anesthesia, the trachea was cannulated and the common carotid arteries were ligated at both sides. The cat was decerebrated by suction at the precollicular level. Ether anesthesia was then immediately discontinued. A pair of needle electrodes was inserted into the neck muscle in order to pick up any EMG muscular discharges. The EMG discharge was amplified and recorded on a pen-writing recorder, along with an integration of the EMG discharge. Recording was started at least 2 hours after withdrawal of anesthesia. Blood pressure induced from the femoral artery, as well as body temperature and heart beat, were recorded and monitored throughout the experiment.
After stable EMG discharges were obtained, the test compounds suspended in 0.5% CMC solution were administered into the duodenum through a previously inserted cannula. The effect of the test compound was expressed as the ratio of the integrated EMG discharge after administration relative to the value before administration.

Series [3] relates to spinal reflex in cats. Kind of series: Effect on spinal reflex in cats. Format: in vivo, cat. Here is the method: Adult cats weighing 3.0 to 4.5 kg each were used. After induction of anesthesia with ether, the animal was anesthetized by intravenous injection of 50 mg/kg of a-chloralose. After the trachea was cannulated, the animal was fixed on a stereotaxic apparatus, and the lumbosacral spinal cord was exposed by laminectomy from L3 to S1. The ventral roots of the right side were cut from L6 to S1 as distal as possible and the cut ends were ligated with cotton thread previously immersed in Ringer's solution. The exposed spinal cord was covered with warmed mineral oil and maintained at 37° C. The ventral root, either L7 or S1, was fixed on a pair of platinum wire electrodes. A pair of collar-type electrodes was implanted on the ipsilateral tibial nerve and the saphenous nerve, for stimulation. After completion of all these operations, the cat was immobilized with pancronium bromide (0.5 mg/kg, i.v.) and maintained by artificial respiration (40/minute). Recording was started at least 2 hours after withdrawal of ether anesthesia. A single square pulse (0.01 to 0.1 msecond pulse width, supramaximal intensity) was applied to the nerve at a frequency of 0.3 Hz from an electronic stimulator. […] In a similar manner to Experiment 2, the blood pressure, heart beat and body temperature of the animal were recorded and monitored. Compounds to be tested were also administered in a similar manner.

For series [4], the system named is thiopental anesthesia. Kind of series: Potentiation of thiopental anesthesia (mice). Format: in vivo, mouse (ddY strain). The settings on record: for Anesthesia time: thiopental 30 mg/kg after one hour. On the procedure:
In the test method, male adult mice of ddY strain each weighing 20 to 30 g were used as divided groups each made up of 5 to 7 mice. Test compounds suspended in 0.5% CMC solution were orally administered. After one hour, thiopental (30 mg/kg) was injected into the tail vein, and the time required for the mouse to recover the righting reflex was measured.

For series [5], the system named is decerebrate rigidity in rats. Kind of series: Suppression of decerebrate rigidity in rats. Format: in vivo, rat. The source holds these as a separate data set.
Series [6] deals with ischemia-induced neurological symptoms in SHR SP. Kind of series: Improvement in ischemia-induced neurological symptoms in Spontaneously Hypertensive Rats Stroke Prone (SHR SP) caused by ligation of the bilateral common carotid arteries. Format: in vivo, rat (SHR SP). Here is the method: The test animals employed were male adult SHR SPs (13 or 15 weeks old). They were used in groups each consisting of about 10 animals. Under halothane anesthesia, both common carotid arteries of each animal were ligated to prepare a brain ischemia model. The halothane anesthesia was stopped immediately after the ligation, and then the time taken to recover the righting reflex, the onset time of convulsions and the survival time were determined. The test solution was prepared in the same manner as described in Experiment 1 and was administered to the animal intraperitoneally 30 minutes before the ligation. A 0.5% CMC solution was administered to the control group in the same manner. The statistical analysis was carried out in a similar manner to that in Experiment 1. The statistical analysis of the survival rate was carried out by the X^2 test.

Series [7] concerns survival time under hypoxic conditions. Kind of series: Effect on survival time under hypoxic conditions. Format: in vivo, mouse (ddY strain). The settings on record: 4% oxygen, 96% nitrogen. The text has this:
The test animals employed were male adult mice (5 weeks old and about 30 g body weight) of the ddY strain. The animals were employed in groups, each containing from 7 to 17 animals. Each animal was given intraperitoneally a test compound in suspension (as in the preceding Experiments). Thirty (30) minutes after this administration, 2 or 3 animals were placed in a 1.5 liter gas chamber made of acrylate resin, and a mixture of 4% by volume oxygen and 96% nitrogen was supplied at the rate of 10 liters/minute. The time of death of the animal was measured (determined by the cessation of respiration).

The test system of series [8] is ischemia-induced neurological symptoms in the Mongolian Gerbil. Kind of series: Improvement of ischemia-induced neurological symptoms in the Mongolian gerbil caused by ligation of the bilateral common carotid arteries for 30 minutes. Format: in vivo. Conditions: 100 mg/kg i.p. upon recommencement of blood flow. Here is the method: The test animals employed were male adult Mongolian gerbils (16-20 weeks old). These were used in groups each consisting of from 10 to 20 animals. The bilateral common carotid arteries were occluded for 30 minutes under anesthesia with pentobarbital (30 mg/kg, intraperitoneally) and halothane (it was introduced to a mixture of 95% oxygen and 5% carbon dioxide at a concentration of 1.5% by volume) and then the occlusion was released to allow the blood to flow. The animal was then placed in a supine position, and we measured (1) the time taken from recommencement of blood flow until convulsions occurred and (2) the survival time. Observations to determine the onset time of convulsions and the survival time were continued for 6 and 7 hours, respectively, after recommencement of blood flow. […] The compound to be tested was suspended in a 0.5% w/v carboxymethyl cellulose (CMC) aqueous solution and administered intraperitoneally upon recommencement of blood flow in the common carotid arteries. On the other hand, a 0.5% CMC solution containing no test compound was administered likewise to a control group. Statistical analysis was carried out using the Mann-Whitney U-test between the control group and the test group.

Where [9] appears, read: Rattus norvegicus, po, 30 mg/kg p.o., read-out: Maximum inhibition.
The mark [10] stands for this setting: 100 mg/kg, administered as in Experiment 2.
[11] abbreviates: 100 mg/kg, after administration.
The mark [12] stands for this setting: 30 mg/kg i.p. 30 minutes before ligation.
The mark [13] stands for this setting: 100 mg/kg i.p. 30 minutes before ligation.

In the case of `O=c1cc(-c2ccccc2)on1CC(O)CN1CCOCC1` (stereo not shown) [Compound 1a], the “Onset of the effect” value in series [1] (10 mg/kg i.d.) was found to be 10 min; in series [1] (30 mg/kg i.d.), 5 min; in series [1] (30 mg/kg i.p.), 5 min; in series [1] (30 mg/kg p.o.), 10 min. In addition, the “Duration of the effect” value was more than 180 min in series [1] (30 mg/kg i.d.), more than 120 min in series [1] (30 mg/kg i.p.), more than 160 min in series [1] (30 mg/kg p.o.) and more than 90 min in series [5] (10 mg/kg i.d.). In series [1] (Rattus norvegicus, intraduodenal, 10 mg/kg i.d., read-out: Maximum inhibition), the inhibition in vivo at 10 mg/kg worked out at 20%. Also, the inhibition in vivo at 30 mg/kg turned out to be 60% in series [1] (Rattus norvegicus, ip, 30 mg/kg i.p., read-out: Maximum inhibition); 95% in series [1] (setting [9]); 60% in series [5] (Rattus norvegicus, intraduodenal, 30 mg/kg i.d., read-out: Maximum inhibition). For the same compound, the “Inhibition of decerebrate rigidity” value was “About 30%” in series [2] (100 mg/kg intraduodenal, 5 minutes after administration) and “about 65%” in series [2] (100 mg/kg intraduodenal, 1 hour after administration). Also, the “Duration of inhibitory effects” value in series [2] (100 mg/kg intraduodenal, throughout the observation period) is not below 2 h. Further, the “Side effects and duration of action compared with eperisone hydrochloride” value in series [2] (compared with eperisone hydrochloride) was “weaker in side effects and of longer action than eperisone hydrochloride”. In addition, the “Duration of the effect on spinal reflexes” value in series [3] (100 mg/kg) was “about 2 hours”. Further, the Monosynaptic reflex entry in series [3] (setting [10]) is given as “little affected”. Also, the Polysynaptic reflex entry in series [3] (setting [10]) is given as “remarkably inhibited”. In addition, the Spino-bulbo-spinal reflex result in series [3] (setting [10]) is given as “remarkably inhibited”. Also, the “Onset of the effect on spinal reflexes” value in series [3] (setting [11]) amounted to 5 min. Moreover, the “Time of maximum effect on spinal reflexes” value in series [3] (setting [11]) stood at 30 min. Also, the “Mechanism shown by spinal reflexes” value in series [3] (in vivo) is listed as “interneuron blockers”. Moreover, the values for the Anesthesia time in series [4] (50 mg/kg p.o.) and in series [4] (100 mg/kg p.o.) were 288.5 ± 20.1 s and 237.3 ± 25.5 s, respectively. Besides, the “Drowsiness (the adverse effect), implied” value in series [4] (compared with afloqualone) is “induce drowsiness (the adverse effect) less than afloqualone”. In addition, the “Prolongation of the duration of thiopental-induced anesthesia, in words” value in series [4] (in comparison with eperisone hydrochloride) is “did not significantly prolong the duration of thiopental-induced anesthesia”.
`NC(=O)OCC(O)COc1noc2ccc(Cl)cc12` (stereo not shown) [Example 3, 3-(3-Carbamoyloxy-2-hydroxypropoxy)-5-chloro-1,2-benzisoxazole]: the “Duration of the effect” value in series [1] (20 mg/kg p.o.), in series [1] (30 mg/kg p.o.) and in series [1] (100 mg/kg p.o.) was more than 90 min each time. Also, the “Onset of the effect” value in series [1] (20 mg/kg p.o.), in series [1] (30 mg/kg p.o.) and in series [1] (100 mg/kg p.o.) was 5 min each time. For the same compound, in series [1] (Rattus norvegicus, po, 20 mg/kg p.o., read-out: Maximum inhibition), the inhibition in vivo at 20 mg/kg came out at 60%. The inhibition in vivo at 30 mg/kg in series [1] (setting [9]) was determined as 90%. In addition, the inhibition in vivo at 100 mg/kg in series [1] (Rattus norvegicus, po, 100 mg/kg p.o., read-out: Maximum inhibition) was 90%. In addition, the “Onset time of convulsions and survival time, in words” value in series [6] (30 mg/kg) is “prolonged onset time of convulsions, survival time significantly”; in series [6] (100 mg/kg), “prolonged onset time of convulsions, survival time significantly”. The figures for the “Onset time of convulsions” value in series [6] (setting [12]) and in series [6] (setting [13]) were 106.5 ± 9.9 min and 306.9 ± 17.1 min, respectively. The “Recovery time of righting reflex” value turned out to be 7.1 ± 0.9 min in series [6] (setting [12]) and 36.3 ± 16.7 min in series [6] (setting [13]). For the same compound, the Survival rate was determined as 80.0% in series [6] (setting [12]) and 100% in series [6] (setting [13]). For the same compound, the Survival time is 392.2 ± 21.2 min in series [6] (setting [12]), 420.0 ± 0.0 min in series [6] (setting [13]), 213.0 ± 27.5 s in series [7] (30 mg/kg i.p.) and 446.7 ± 36.9 s in series [7] (100 mg/kg i.p.). In addition, the “Survival rate of ischemic animals, in words” value in series [6] (100 mg/kg) is “increased survival rate of ischemic animals”.
Turning to `NC(=O)OCC(O)COc1cc(-c2cccc(Cl)c2)on1` (stereo not shown) [Example 4, 3-(3-Carbamoyloxy-2-hydroxypropoxy)-5-(m-chlorophenyl)isoxazole], in series [8], the “Onset time of convulsions” value amounted to 233.9 min, the “Recovery time of righting reflex” value worked out at 115.7 min and the Survival time is 344.2 min. In series [6] (100 mg/kg), the “Onset time of convulsions and survival time, in words” value is on record as “prolonged onset time of convulsions, survival time significantly”. In series [6] (setting [13]), the “Onset time of convulsions” value is 97.6 ± 18.0 min, the “Recovery time of righting reflex” value turned out to be 10.1 ± 1.8 min, the Survival rate is reported as 44.4% and the Survival time was 322.4 ± 34.8 min. Also, the Survival time in series [7] (100 mg/kg i.p.) was 178.9 ± 15.0 s.

Source of the values: patent US5321037A, “Isoxazole derivatives for use as cerebro-active drugs and central muscle relaxants” (Sankyo Company, Limited, priority 1986, dated 1994).
